Reference: PubChem BioAssay (NCI)
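Five compound concentrations were applied to cells in 96-well plates for 48 hours; endpoints were derived by simple linear interpolation of the resulting dose-response curve. GI50 is the concentration that inhibits growth by half. TGI: total growth inhibition.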

Columns and labels:
Assay in all cases: inhibition of tumour cell growth, NCI panel, 48 h
HS 578T breast = test system: HS 578T breast
MOLT-4 leukemia = test system: MOLT-4 leukemia
OVCAR-5 ovarian = test system: OVCAR-5 ovarian
PC-3 prostate = test system: PC-3 prostate
RPMI-8226 leukemia = test system: RPMI-8226 leukemia
RXF 393 renal = test system: RXF 393 renal
SK-MEL-28 melanoma = test system: SK-MEL-28 melanoma
U251 CNS = test system: U251 CNS
UACC-62 melanoma = test system: UACC-62 melanoma
SNB-75 CNS = test system: SNB-75 CNS

SMILES	GI50 (HS 578T breast)	TGI (HS 578T breast)	GI50 (MOLT-4 leukemia)	TGI (MOLT-4 leukemia)	GI50 (OVCAR-5 ovarian)	TGI (OVCAR-5 ovarian)	GI50 (PC-3 prostate)	TGI (PC-3 prostate)	GI50 (RPMI-8226 leukemia)	TGI (RPMI-8226 leukemia)	GI50 (RXF 393 renal)	TGI (RXF 393 renal)	GI50 (SK-MEL-28 melanoma)	TGI (SK-MEL-28 melanoma)	GI50 (U251 CNS)	TGI (U251 CNS)	GI50 (UACC-62 melanoma)	TGI (UACC-62 melanoma)	TGI (SNB-75 CNS)	GI50 (SNB-75 CNS)
N#C/C(=N\Nc1ccccc1)C(=O)Nc1cc(-c2ccccc2)nn1-c1ccccc1	3.5 µM	> 100 µM	3.75 µM	> 100 µM	3.39 µM	> 100 µM	2.13 µM	9.48 µM	1.8 µM	39.2 µM	2.26 µM	7.69 µM	3.78 µM	> 100 µM	3.14 µM	16 µM	1.65 µM	> 100 µM		
Cc1cccc(C)c1N1C(=O)C(=O)C(c2nc3ccccc3s2)/C(=N/NC(=O)c2ccccc2O)C1=O (stereo not drawn)				> 100 µM		> 100 µM				> 69.2 µM		17.2 µM		> 83.1 µM		> 100 µM		8.31 µM	69.5 µM	
N#CC(C#N)=Cc1ccc(CP(=O)(O)O)cc1				> 100 µM		> 100 µM				> 100 µM				> 100 µM		> 100 µM		> 100 µM		
COc1ccc2c(c1)NC1(O)c3ccccc3C(=O)C21O (stereo not drawn)				> 100 µM						> 100 µM				> 100 µM		> 100 µM		> 100 µM	> 100 µM	
O=S(=O)(N=NC=C1c2ccccc2N(O)c2ccccc21)c1ccc(Cl)cc1				> 100 µM		> 100 µM				> 100 µM				> 100 µM		> 100 µM		> 100 µM	78.2 µM	
CC1=NOC(=O)/C1=C/c1ccc([N+](=O)[O-])cc1				> 100 µM		> 100 µM						> 100 µM		> 100 µM		> 100 µM		> 100 µM	> 100 µM	
NC(=O)c1cccc(OCC(O)CO)c1 (stereo not drawn)		> 100 µM		> 100 µM		> 100 µM		> 100 µM						> 100 µM		> 100 µM		> 100 µM	> 100 µM	
COc1cc(C(=O)O[C@H](C(=O)NCCN(C)CCNC(=O)[C@@H](OC(=O)c2cc(OC)cc3c(C)cccc23)[C@]2(C)CO2)[C@]2(C)CO2)c2cccc(C)c2c1	0.304 µM	> 100 µM	< 0.01 µM	0.153 µM	0.217 µM	2.75 µM			0.246 µM	5.85 µM			0.171 µM	0.512 µM	< 0.01 µM	0.0139 µM	0.154 µM	0.338 µM	1.02 µM	0.111 µM
CC(C)(C)N/N=C(\C(=O)Nc1nc(=S)[nH][nH]1)C1C(=O)Nc2ccccc2S1=O (stereo not drawn)				> 100 µM		> 100 µM				> 100 µM		> 100 µM		> 100 µM		> 100 µM		> 100 µM	> 100 µM	
CC(=O)NNc1nc(C)c(C(=O)/C=C/c2ccc(Cl)cc2)s1				> 100 µM		> 100 µM				> 100 µM		> 100 µM		> 100 µM		> 100 µM		> 100 µM	> 100 µM	
CCCCc1c2cnccc2c(CCCC)c2c1[nH]c1ccccc12				23.7 µM		> 100 µM				17.6 µM		24.9 µM		21.7 µM		27 µM		23.7 µM	23.6 µM	
Cc1nc(/C=C2\C(=O)C=Cc3ccccc32)c(O)o1				> 100 µM		> 100 µM				> 100 µM		> 100 µM		> 100 µM		> 100 µM		> 100 µM	40.4 µM	
Cc1c(Cl)cccc1NC(=O)/C=C/c1ccccc1		> 100 µM		> 100 µM		> 100 µM		> 100 µM		> 100 µM				> 100 µM		> 100 µM		> 100 µM	> 100 µM	
N/N=C(\c1nc2ccc(Cl)cc2[nH]c1=O)C(O)c1ccc(Cl)c(Cl)c1 (stereo not drawn)				> 100 µM		> 100 µM				> 100 µM		> 100 µM		> 100 µM		> 100 µM		> 100 µM	> 100 µM	
COc1ccc2c(c1OC)C(C(Cl)(Cl)Cl)N1CCc3cc4c(cc3C1=C2)OCO4 (stereo not drawn)		> 100 µM		80.9 µM		> 100 µM		> 100 µM		11.3 µM				27.8 µM		43.1 µM		30.5 µM	> 100 µM	
COc1cc2c(cc1OC)C1Cc3ccc(OC)c(OC)c3C[N+]1([O-])CC2 (stereo not drawn)				> 100 µM		> 100 µM				> 100 µM				> 100 µM		> 100 µM			> 100 µM	
CC1CC(C)C2OC2(C)C[C@H](C)C(=O)NC(C)C(=O)N(C)[C@H](Cc2c(Br)[nH]c3ccccc23)C(=O)N[C@@H](c2ccc(O)cc2)CC(=O)O1 (stereo partly drawn)				57.3 µM		18.8 µM				5.43 µM		4.81 µM		12.2 µM		2.98 µM		14.4 µM	2.32 µM	
COc1ccc(C(=O)CC2=Nc3nnc(CCCCCCCc4nnc5n4C(=O)C(CC(=O)c4ccc(OC)cc4)=N5)n3C2=O)cc1				> 100 µM		> 100 µM				> 100 µM		> 100 µM		> 100 µM		> 100 µM		> 100 µM	> 100 µM	

SMILES	GI50 (HS 578T breast)	TGI (HS 578T breast)	GI50 (MOLT-4 leukemia)	TGI (MOLT-4 leukemia)	GI50 (OVCAR-5 ovarian)	TGI (OVCAR-5 ovarian)	GI50 (PC-3 prostate)	TGI (PC-3 prostate)	GI50 (RPMI-8226 leukemia)	TGI (RPMI-8226 leukemia)	GI50 (RXF 393 renal)	TGI (RXF 393 renal)	GI50 (SK-MEL-28 melanoma)	TGI (SK-MEL-28 melanoma)	GI50 (U251 CNS)	TGI (U251 CNS)	GI50 (UACC-62 melanoma)	TGI (UACC-62 melanoma)	TGI (SNB-75 CNS)	GI50 (SNB-75 CNS)
COc1cc(C(C)c2cc3c(cc2OCCNC(=O)COc2cc4c(cc2C(C)c2cc(OC)c(OC)c(OC)c2)OCO4)OCO3)cc(OC)c1OC (stereo not drawn)				71.8 µM		> 100 µM						> 100 µM		> 100 µM		> 100 µM		> 100 µM	> 100 µM	
CCCN(CCC)C(=O)c1nc(N)nc(-c2ccc(OC)cc2)c1-c1ccc(OC)cc1				> 100 µM		> 100 µM				> 100 µM				> 100 µM		> 100 µM		> 100 µM	> 100 µM	
O=C1CNC(=O)c2[nH]cnc2N1				> 100 µM		> 100 µM				> 100 µM		> 100 µM		> 100 µM		> 100 µM		> 100 µM	> 100 µM	
CCOc1ccc(NCC2CC/C(=C\c3ccccc3OC)C2=O)cc1 (stereo not drawn)				20.9 µM		32.5 µM				3.91 µM		21.4 µM		24.1 µM		27.8 µM		25.5 µM	31.1 µM	
C/C(CC(=O)Nc1ccccc1C)=N/NS(=O)(=O)c1ccc(C)cc1				> 100 µM		> 100 µM				> 100 µM		> 100 µM		> 100 µM		> 100 µM		> 100 µM	> 100 µM	
Cc1ccc(S(=O)(=O)OC(COC(=O)c2ccccc2)C(OS(=O)(=O)c2ccc(C)cc2)C(OS(=O)(=O)c2ccc(C)cc2)C(COC(=O)c2ccccc2)OS(=O)(=O)c2ccc(C)cc2)cc1 (stereo not drawn)				> 100 µM						> 100 µM		> 100 µM		> 100 µM		> 100 µM		> 10 µM	90 µM	
CC(C(=O)c1ccccc1)C1(O)C(=O)Nc2ccc(Cl)cc21 (stereo not drawn)						> 100 µM				> 100 µM		> 100 µM		> 100 µM		> 100 µM		> 100 µM	> 100 µM	
COC(=O)C1CC(OC(C)=O)C=C2C(=O)CCC21 (stereo not drawn)				40 µM						57.7 µM		29.8 µM		33.8 µM		80.9 µM		35.9 µM	48 µM	
CCOC(=O)C1=C(C)N(NC(N)=O)C2(N)N(NC(N)=O)C(C)=C(C(=O)OCC)C12C(=O)OCC (stereo not drawn)				> 100 µM		> 100 µM				> 100 µM		> 100 µM		> 100 µM		> 100 µM		> 100 µM	> 100 µM	
COC1CCC(OC)C(C2(C3CC(OC)CCC3OC)OC(=O)c3ccccc32)C1 (stereo not drawn)				89.3 µM		> 100 µM				> 100 µM		> 100 µM				> 100 µM		> 100 µM	> 100 µM	
CC(=O)OC12c3ccccc3-c3ccccc3C1C(C(=O)O)C2C(=O)O (stereo not drawn)		> 10 µM		> 10 µM		> 10 µM		> 10 µM		> 10 µM		> 10 µM		> 10 µM		> 10 µM				
Cc1cc(C)c(C(=O)O)c(SSc2cc(C)cc(C)c2C(=O)O)c1				> 100 µM		> 100 µM						> 100 µM		> 100 µM		> 100 µM		> 100 µM		
O=C(Nc1ccccc1-c1nn(CN2CCNCC2)c(=S)n(CN2CCNCC2)c1=O)C(F)(F)F				> 100 µM		45 µM						30.3 µM		33.2 µM		31.7 µM		32.5 µM	52.9 µM	
COc1ccc2oc(-c3ccc(OC)c(OC)c3OC)cc(=O)c2c1						> 100 µM				43 µM		93.8 µM		> 100 µM				> 100 µM	> 100 µM	
O=C1C=Cc2c1ccc1ccccc21	18.4 µM	54.6 µM			16.1 µM	67.4 µM	13 µM	85.2 µM	4.2 µM	21.9 µM			80.4 µM	> 100 µM	24.5 µM	> 100 µM	9.66 µM	70.9 µM	> 100 µM	35.4 µM
NCCNC(=O)c1cccc2cc3ccccc3nc12				1.94 µM		14.6 µM				> 100 µM		10.2 µM		9.71 µM		9.04 µM		8.34 µM	27.7 µM	
C=CCC1(C(=O)OC(C)(C)C)C(OC)=C(C(=O)OC(C)(C)C)C2C1C(C(=O)OC(C)(C)C)=C(OC)C2(CC=C)C(=O)OC(C)(C)C (stereo not drawn)				> 100 µM		> 100 µM				> 100 µM		> 100 µM		> 100 µM				> 100 µM	> 100 µM	
